# In ChEMBL document CHEMBL1150575, “Microbial transformation of hypoestenone” (2001):
# Key:
# Type in all cases: functional
# [1] = system: Cryptococcus neoformans; assay: Antimicrobial activity against Cryptococcus neoformans by microtiter-plate assay
# [2] = system: Plasmodium falciparum; assay: Antiparasitic activity against Plasmodium falciparum W2
# [3] = system: Pseudomonas aeruginosa; assay: Antimicrobial activity against Pseudomonas aeruginosa by microtiter-plate assay
SMILES,MIC [1] [µg/mL],MIC [2] [µg/mL],MIC [3] [µg/mL]
CC1=C2C[C@]3(C)C(=O)C[C@@H](C(C)C)[C@H]3C[C@H]3O[C@@]3(C)[C@@H]2CC1=O,50,–,–
CC1=C2C[C@]3(C)C(=O)C[C@@H](C(C)C)[C@H]3C/C=C(/C)[C@@H]2CC1=O [HYPOESTENONE],20,2.8,45
